Data on 27 molecules can be found in patent US8993554B2, “Tetrahydroquinoline derivatives useful as bromodomain inhibitors” (GlaxoSmithKline LLC, priority 2011, dated 2015).

Where a name gives a salt, the structure may show the parent alone.

For this assay, the system named is LPS induced IL-6 secretion from whole blood. In words: Measurement of LPS Induced IL-6 Secretion from Whole Blood. The format is cell-based. To be noted: IL-6 by immunoassay, LPS 200 ng/ml, 24 hours. On the procedure: Activation of monocytic cells by agonists of toll-like receptors such as bacterial lipopolysaccharide (LPS) results in production of key inflammatory mediators including IL-6. Such pathways are widely considered to be central to the pathophysiology of a range of auto-immune and inflammatory disorders.
Compounds to be tested are diluted to give a range of appropriate concentrations of which 1 μl of the diluted stocks is added to a 96 well plate. Following addition of whole blood (130 μl) the plates are incubated at 37 degrees (5% CO2) for 30 min before the addition of 10 μl of 2.8 ug/ml LPS, diluted in complete RPMI 1640 (final concentration=200 ng/ml), to give a total volume of 140 μl per well. After further incubation for 24 hours at 37 degrees, 140 μl of PBS are added to each well. The plates are sealed, shaken for 10 minutes and then centrifuged (2500 rpm×10 min). 100 μl of the supernatant are removed and IL-6 levels assayed by immunoassay (typically by MesoScale Discovery technology) either immediately or following storage at −20 degrees. Concentration response curves for each compound was generated from the data and an IC50 value was calculated.
In turn, `CC(=O)N1c2ccc(-c3ccc(CC(=O)NCCN)cc3)cc2[C@H](NC(=O)OC(C)C)C[C@@H]1C` [Example 9, Isopropyl ((2S,4R)-1-acetyl-6-(4-(2-((2-aminoethyl)amino)-2-oxoethyl)phenyl)-2-methyl-1,2,3,4-tetrahydroquinolin-4-yl)carbamate hydrochloride] gave an IC50 of 50.1 to 3160 nM.
To `CC(=O)N1c2ccc(-c3ccc(C(=O)NC(CO)CO)cn3)cc2[C@H](Nc2ccccn2)C[C@@H]1C` [Example 25, 6-((2S,4R)-1-acetyl-2-methyl-4-(pyridin-2-ylamino)-1,2,3,4-tetrahydroquinolin-6-yl)-N-(1,3-dihydroxypropan-2-yl)nicotinamide] belongs 50.1 to 3160 nM; to `CC(=O)N1c2ccc(-c3ccc(C(=O)NC(CO)CO)cn3)cc2[C@H](Nc2ccc(C#N)cn2)C[C@@H]1C` [Example 11, 6-((2S,4R)-1-acetyl-4-((5-cyanopyridin-2-yl)amino)-2-methyl-1,2,3,4-tetrahydroquinolin-6-yl)-N-(1,3-dihydroxypropan-2-yl)nicotinamide], 50.1 to 3160 nM.
The same measure for `CC(=O)N1c2ccc(-c3ccc(C(=O)N4CCOCC4)nc3)cc2[C@H](Nc2ccc(C)cn2)C[C@@H]1C` [Example 51, 1-((2S,4R)-2-methyl-4-((5-methylpyridin-2-yl)amino)-6-(6-(morpholine-4-carbonyl)pyridin-3-yl)-3,4-dihydroquinolin-1(2H)-yl)ethanone]: 50.1 to 3160 nM.
To `CC(=O)N1c2ccc(-c3ccc(C(=O)N4CCOCC4)cn3)cc2[C@H](Nc2ccc(C)cn2)C[C@@H]1C` [Example 59, 1-((2S,4R)-2-methyl-4-((5-methylpyridin-2-yl)amino)-6-(5-(morpholine-4-carbonyl)pyridin-2-yl)-3,4-dihydroquinolin-1(2H)-yl)ethanone] belongs 50.1 to 3160 nM.
Turning to `CC(=O)N1c2ccc(-c3ccc(C(=O)NCCN)cc3)cc2[C@H](Nc2ccccn2)C[C@@H]1C` [Example 22, 4-((2S,4R)-1-acetyl-2-methyl-4-(pyridin-2-ylamino)-1,2,3,4-tetrahydroquinolin-6-yl)-N-(2-aminoethyl)benzamide], the IC50 is 50.1 to 3160 nM.
The same measure for `CC(=O)N1c2ccc(-c3ccc(C(=O)NCCN(C)C)nc3)cc2[C@H](Nc2ccc(C#N)cn2)C[C@@H]1C` [Example 28, 5-((2S,4R)-1-acetyl-4-((5-cyanopyridin-2-yl)amino)-2-methyl-1,2,3,4 tetrahydroquinolin-6-yl)-N-(2-(dimethylamino)ethyl)picolinamide]: 50.1 to 3160 nM; for `CC(=O)N1c2ccc(-c3ccc(C(=O)N4CCOCC4)cn3)cc2[C@H](Nc2ccccn2)C[C@@H]1C` [Example 61, 1-((2S,4R)-2-methyl-6-(5-(morpholine-4-carbonyl)pyridin-2-yl)-4-(pyridin-2-ylamino)-3,4-dihydroquinolin-1(2H)-yl)ethanone]: 50.1 to 3160 nM; for `CC(=O)N1c2ccc(-c3ccc(C(=O)NCCN)cc3)cc2[C@H](Nc2ccc(Cl)cc2)C[C@@H]1C` [Example 44, 4-((2S,4R)-1-acetyl-4-((4-chlorophenyl)amino)-2-methyl-1,2,3,4-tetrahydroquinolin-6-yl)-N-(2-aminoethyl)benzamide]: 50.1 to 3160 nM.
The same measure for `CC(=O)N1c2ccc(-c3ccc(C(=O)NC(CO)CO)nc3)cc2[C@H](Nc2ccc(C#N)cn2)C[C@@H]1C` [Example 30, 5-((2S,4R)-1-acetyl-4-((5-cyanopyridin-2-yl)amino)-2-methyl-1,2,3,4tetrahydroquinolin-6-yl)-N-(1,3-dihydroxypropan-2-yl)picolinamide]: 50.1 to 3160 nM; for `CC(=O)N1c2ccc(-c3ccc(C(=O)NCCO)cc3)cc2[C@H](Nc2ccccc2)C[C@@H]1C` [Example 46, 4-((2S,4R)-1-acetyl-2-methyl-4-(phenylamino)-1,2,3,4-tetrahydroquinolin-6-yl)-N-(2-hydroxyethyl)benzamide]: 50.1 to 3160 nM.
The molecule `CC(=O)N1c2ccc(-c3ccc(C(=O)NCCN(C)C)cc3)cc2[C@H](Nc2ccccc2)C[C@@H]1C` [Example 45, 4-((2S,4R)-1-acetyl-2-methyl-4-(phenylamino)-1,2,3,4-tetrahydroquinolin-6-yl)-N-(2-(dimethylamino)ethyl)benzamide] gave an IC50 of 50.1 to 3160 nM.
The same measure for `CC(=O)N1c2ccc(-c3ccc(C(=O)NCCO)nc3)cc2[C@H](Nc2cnc(C#N)cn2)C[C@@H]1C` [Example 49, 5-((2S,4R)-1-acetyl-4-((5-cyanopyrazin-2-yl)amino)-2-methyl-1,2,3,4-tetrahydroquinolin-6-yl)-N-(2-hydroxyethyl)picolinamide]: 50.1 to 3160 nM; for `CC(=O)N1c2ccc(-c3ccc(C(=O)N4CCOCC4)cn3)cc2[C@H](Nc2cnccn2)C[C@@H]1C` [Example 58, 1-((2S,4R)-2-methyl-6-(5-(morpholine-4-carbonyl)pyridin-2-yl)-4-(pyrazin-2-ylamino)-3,4-dihydroquinolin-1(2H)-yl)ethanone]: 50.1 to 3160 nM.
To `CC(=O)N1c2ccc(-c3ccc(C(=O)NCCN(C)C)cc3)cc2[C@H](NC(=O)OC(C)C)C[C@@H]1C` [Example 7, Isopropyl ((2S,4R)-1-acetyl-6-(4-((2-(dimethylamino)ethyl)carbamoyl)phenyl)-2-methyl-1,2,3,4-tetrahydroquinolin-4-yl)carbamate] belongs 50.1 to 3160 nM.
To `CC(=O)N1c2ccc(-c3ccc(C(=O)N4CCNCC4)nc3)cc2[C@H](Nc2ccc(C#N)cn2)C[C@@H]1C` [Example 48, 6-(((2S,4R)-1-acetyl-2-methyl-6-(6-(piperazine-1-carbonyl)pyridin-3-yl)-1,2,3,4-tetrahydroquinolin-4-yl)amino)nicotinonitrile] belongs 50.1 to 3160 nM; to `CC(=O)N1c2ccc(-c3ccc(C(=O)N4CCOCC4)nc3)cc2[C@H](Nc2cnc(C)cn2)C[C@@H]1C` [Example 54, 1-((2S,4R)-2-methyl-4-((5-methylpyrazin-2-yl)amino)-6-(6-(morpholine-4-carbonyl)pyridin-3-yl)-3,4-dihydroquinolin-1(2H)-yl)ethanone], 50.1 to 3160 nM; to `CC(=O)N1c2ccc(-c3ccc(C(=O)N4CCOCC4)nc3)cc2[C@H](Nc2ccc(Cl)cn2)C[C@@H]1C` [Example 52, 1-((2S,4R)-4-((5-chloropyridin-2-yl)amino)-2-methyl-6-(6-(morpholine-4-carbonyl)pyridin-3-yl)-3,4-dihydroquinolin-1(2H)-yl)ethanone], 50.1 to 3160 nM.
On to `CC(=O)N1c2ccc(-c3ccc(C(=O)N[C@H](C)CO)nc3)cc2[C@H](Nc2ccc(C#N)cn2)C[C@@H]1C` [Example 32, 5-((2S,4R)-1-acetyl-4-((5-cyanopyridin-2-yl)amino)-2-methyl-1,2,3,4-tetrahydroquinolin-6-yl)-N—((R)-1-hydroxypropan-2-yl)picolinamide], for which the IC50 was 50.1 to 3160 nM.
`CC(=O)N1c2ccc(-c3ccc(C(=O)N4CCOCC4)cn3)cc2[C@H](Nc2ccc(Cl)cc2)C[C@@H]1C` [Example 64, 1-((2S,4R)-4-((4-chlorophenyl)amino)-2-methyl-6-(5-(morpholine-4-carbonyl)pyridin-2-yl)-3,4-dihydroquinolin-1(2H)-yl)ethanone] showed an IC50 of 50.1 to 3160 nM.
The same measure for `CC(=O)N1c2ccc(-c3ccc(C(=O)N4CCOCC4)cc3)cc2[C@H](Nc2ccc(C#N)cn2)C[C@@H]1C` [Example 65, 6-(((2S,4R)-1-acetyl-2-methyl-6-(4-(morpholine-4-carbonyl)phenyl)-1,2,3,4-tetrahydroquinolin-4-yl)amino)nicotinonitrile]: 50.1 to 3160 nM.
The same measure for `CC(=O)N1c2ccc(-c3ccc(C(=O)N4CCN(C)CC4)nc3)cc2[C@H](Nc2ccc(C#N)cn2)C[C@@H]1C` [Example 34, 6-(((2S,4R)-1-acetyl-2-methyl-6-(6-(4-methylpiperazine-1-carbonyl)pyridin-3-yl)-1,2,3,4-tetrahydroquinolin-4-yl)amino)nicotinonitrile]: 50.1 to 3160 nM; for `CC(=O)N1c2ccc(-c3ccc(C(=O)NCCO)cn3)cc2[C@H](Nc2ccccn2)C[C@@H]1C` [Example 24, 6-((2S,4R)-1-acetyl-2-methyl-4-(pyridin-2-ylamino)-1,2,3,4-tetrahydroquinolin-6-yl)-N-(2-hydroxyethyl)nicotinamide]: 50.1 to 3160 nM.
The same measure for `CC(=O)N1c2ccc(-c3ccc(C(=O)NC(CO)CO)cc3)cc2[C@H](Nc2ccc(C#N)cn2)C[C@@H]1C` [Example 15, 4-((2S,4R)-1-acetyl-4-((5-cyanopyridin-2-yl)amino)-2-methyl-1,2,3,4-tetrahydroquinolin-6-yl)-N-(1,3-dihydroxypropan-2-yl)benzamide]: 50.1 to 3160 nM.
`CC(=O)N1c2ccc(-c3ccc(CCC(=O)NCCO)cc3)cc2[C@H](Nc2ccc(C#N)cn2)C[C@@H]1C` [Example 2, 3-(4-((2S,4R)-1-Acetyl-4-((5-cyanopyridin-2-yl)amino)-2-methyl-1,2,3,4-tetrahydroquinolin-6-yl)phenyl)-N-(2-hydroxyethyl)propanamide] showed an IC50 of 50.1 to 3160 nM.
Take `CC(=O)N1c2ccc(-c3ccc(C(=O)NCCN(C)C)cn3)cc2[C@H](Nc2ccc(C#N)cn2)C[C@@H]1C` [Example 10, 6-((2S,4R)-1-acetyl-4-((5-cyanopyridin-2-yl)amino)-2-methyl-1,2,3,4-tetrahydroquinolin-6-yl)-N-(2-(dimethylamino)ethyl)nicotinamide]: the IC50 is 50.1 to 3160 nM.
The molecule `CC(=O)N1c2ccc(-c3ccc(C(=O)NCCO)cc3)cc2[C@H](Nc2ccccn2)C[C@@H]1C` [Example 19, 4-((2S,4R)-1-acetyl-2-methyl-4-(pyridin-2-ylamino)-1,2,3,4-tetrahydroquinolin-6-yl)-N-(2-hydroxyethyl)benzamide] gave an IC50 of 50.1 to 3160 nM.
